This is an account of results in ChEMBL document CHEMBL1131921, “Diamino benzo[b]thiophene derivatives as a novel class of active site directed thrombin inhibitors: 3. Enhancing activity by imposing conformational restriction in the C-4" side chain” (Bioorg Med Chem Lett, 1999).

Structures are written as SMILES.

The assay has as its target Prothrombin (Homo sapiens) (UniProt P00734). Put plainly: Binding affinity for human Prothrombin as apparent association constant (Kass).
In the case of `c1ccc2c(Cc3ccc(CCCN4CCCC4)cc3)c(-c3ccc(OCCN4CCCC4)cc3)sc2c1`, the K ass is 6.7e+06 l M-1.
Then `C[C@H](COc1ccc(Cc2c(-c3ccc(OCCN4CCCC4)cc3)sc3ccccc23)cc1)N1CCCC1`, with 4.17e+06 l M-1; and `C(=C\c1ccc(Cc2c(-c3ccc(OCCN4CCCC4)cc3)sc3ccccc23)cc1)/CN1CCCC1` (stereo in doubt; cis), with 9.8e+06 l M-1; and `CC(COc1ccc(Cc2c(-c3ccc(OCCN4CCCC4)cc3)sc3ccccc23)cc1)N1CCCC1` (configuration not stated), with 7.34e+06 l M-1.
The figure for `c1ccc2c(Cc3ccc(O[C@@H]4CCC[C@H]4N4CCCC4)cc3)c(-c3ccc(OCCN4CCCC4)cc3)sc2c1` is 2.74e+07 l M-1.
The figure for `c1ccc2c(Cc3ccc(O[C@@H]4CCCC[C@H]4N4CCCC4)cc3)c(-c3ccc(OCCN4CCCC4)cc3)sc2c1` is 2.4e+07 l M-1; for `CCC(CN1CCCC1)Oc1ccc(Cc2c(-c3ccc(OCCN4CCCC4)cc3)sc3ccccc23)cc1` (configuration not stated) it is 1.23e+07 l M-1; for `C[C@@H](COc1ccc(Cc2c(-c3ccc(OCCN4CCCC4)cc3)sc3ccccc23)cc1)N1CCCC1` it is 9.07e+06 l M-1.
With `C(=C\c1ccc(Cc2c(-c3ccc(OCCN4CCCC4)cc3)sc3ccccc23)cc1)/CN1CCCC1` (stereo in doubt; trans), the K ass is 1.32e+07 l M-1.
Consider `C(#Cc1ccc(Cc2c(-c3ccc(OCCN4CCCC4)cc3)sc3ccccc23)cc1)CN1CCCC1`, for which the K ass was 4.84e+06 l M-1.
As to `CC(C)(COc1ccc(Cc2c(-c3ccc(OCCN4CCCC4)cc3)sc3ccccc23)cc1)N1CCCC1`, the K ass is 4.69e+06 l M-1.
Regarding `CCC(COc1ccc(Cc2c(-c3ccc(OCCN4CCCC4)cc3)sc3ccccc23)cc1)N1CCCC1` (configuration not stated), the K ass was 2.81e+07 l M-1.
